Laboratory results: ChEMBL document CHEMBL3351435, “New pyrrole derivatives with potent tubulin polymerization inhibiting activity as anticancer agents including hedgehog-dependent cancer” (J Med Chem, 2014)
Active and inactive are the calls of the source. The calls are words filed in the database; no cut-off is given here.

Columns and labels:
Tubulin = assay: Inhibition of tubulin (unknown origin) polymerization incubated 15 mins prior to GTP addition by spectrophotometry; format: protein-complex assay, Homo sapiens
MCF7 = assay: Cytotoxicity against human MCF7 cells after 96 hrs by Giemsa staining-based light microscopy; format: functional, cell-based; details: MCF7, 96 h
HeLa [1] = assay: Cytotoxicity against human HeLa cells assessed as growth inhibition after 48 hrs by MTT method; format: functional, cell-based
HT-29 = assay: Cytotoxicity against human HT-29 cells assessed as growth inhibition after 48 hrs by MTT method; format: functional, cell-based; details: HT-29, 48 h
A549 = assay: Cytotoxicity against human A549 cells assessed as growth inhibition after 48 hrs by MTT method; format: functional, cell-based; details: A549, 48 h
[2] = Cytotoxicity against human MESSA cells assessed as growth inhibition after 72 hrs by CellTitre-Glo assay; format: functional, cell-based; details: MES-SA
[3] = Cytotoxicity against human MESSA/DX5 cells assessed as growth inhibition after 72 hrs by CellTitre-Glo assay; format: functional, cell-based; details: MES-SA/Dx5, 72 h
HeLa [4] = assay: Cell cycle arrest in human HeLa cells assessed as accumulation at G2/M phase at 100 nM by propidium iodide staining-based flow cytometry; format: functional
HeLa [5] = assay: Cell cycle arrest in human HeLa cells assessed as mitotic rounded-up phenotype at 20 nM by light microscopy; format: functional, cell-based
HeLa [6] = assay: Induction of apoptosis in human HeLa cells assessed as failure of MT elongation at 20 nM by immunofluorescence analysis; format: functional, cell-based
HeLa [7] = assay: Induction of apoptosis in human HeLa cells assessed as blockage of mitotic progression at 20 to 100 nM by annexin V staining-based immunofluorescence microscopy; format: functional, cell-based
HeLa [8] = assay: Cell cycle arrest in human HeLa cells assessed as reduction in mitotic slippage at 100 nM by annexin V staining-based immunofluorescence microscopy; format: functional
HeLa [9] = assay: Cell cycle arrest in human HeLa cells by propidium iodide staining-based flow cytometry; format: functional
HepG2 [10] = assay: Cytotoxicity against human HepG2 cells assessed as growth inhibition after 48 hrs by MTT method; format: functional, cell-based; details: HepG2, 48 h
[11] = Cell cycle arrest in human PC3 cells assessed as accumulation at G2/M phase at 500 nM after 24 hrs by propidium iodide staining-based flow cytometry; format: functional; details: PC-3
RD [12] = assay: Cell cycle arrest in human RD cells assessed as accumulation at G2/M phase at 500 nM after 24 hrs by propidium iodide staining-based flow cytometry; format: functional
HepG2 [13] = assay: Cell cycle arrest in human HepG2 cells assessed as accumulation at G2/M phase at 500 nM after 24 hrs by propidium iodide staining-based flow cytometry; format: functional
[14] = Cell cycle arrest in human PC3 cells assessed as rounded cells at 500 nM after 24 hrs by propidium iodide staining-based flow cytometry; format: functional; details: PC-3
RD [15] = assay: Cell cycle arrest in human RD cells assessed as rounded cells at 500 nM after 24 hrs by propidium iodide staining-based flow cytometry; format: functional
HepG2 [16] = assay: Cell cycle arrest in human HepG2 cells assessed as rounded cells at 500 nM after 24 hrs by propidium iodide staining-based flow cytometry; format: functional
RD [17] = assay: Cell cycle arrest in human RD cells at 500 nM incubated for 24 hrs followed by compound washout measured after 24 hrs; format: functional, cell-based
RD [18] = assay: Induction of apoptosis in human RD cells at 500 to 2000 nM after 48 hrs by annexin-V/propidium iodide staining-based flow cytometry; format: functional, cell-based
HepG2 [19] = assay: Induction of apoptosis in human HepG2 cells at 500 to 2000 nM after 48 hrs by annexin-V/propidium iodide staining-based flow cytometry; format: functional, cell-based
K562 = assay: Cytotoxicity against human K562 cells assessed as growth inhibition after 96 hrs by Giemsa staining-based light microscopy; format: functional, cell-based; details: K562, 96 h
[20] = Inhibition of hedgehog signaling in mouse NIH/3T3 Shh-Light II cells after 48 hrs by luciferase reporter gene assay; format: functional, cell-based
[21] = Cytotoxicity against human D283 cells; format: functional, cell-based
[22] = Cmax in CD-1 mouse at 5 mg/kg, iv; format: ADME, organism-based; parameters: dose 5 mg/kg, route intravenous; details: in vivo
[23] = Initial plasma concentration in CD-1 mouse at 5 mg/kg, iv; format: ADME, organism-based; parameters: dose 5 mg/kg, route intravenous
Mus musculus [24] = assay: Tlast in CD-1 mouse at 5 mg/kg, iv; format: ADME, organism-based; parameters: dose 5 mg/kg, route intravenous; details: in vivo
Mus musculus [25] = assay: Clast in CD-1 mouse at 5 mg/kg, iv; format: ADME, organism-based; parameters: dose 5 mg/kg, route intravenous; details: in vivo
[26] = Mean residence time in CD-1 mouse at 5 mg/kg, iv; format: ADME, organism-based; parameters: dose 5 mg/kg, route intravenous; details: in vivo
[27] = Clearance in CD-1 mouse at 5 mg/kg, iv; format: ADME, organism-based; parameters: dose 5 mg/kg, route intravenous; details: in vivo
[28] = Volume of distribution at steady state in CD-1 mouse at 5 mg/kg, iv; format: ADME, organism-based; parameters: dose 5 mg/kg, route intravenous; details: in vivo, read-out: Vdss
[29] = AUC infinity in CD-1 mouse at 5 mg/kg, iv; format: ADME, organism-based; parameters: time infinity, dose 5 mg/kg, route intravenous; details: plasma
[30] = Tmax in CD-1 mouse at 15 mg/kg, po; format: ADME, organism-based; parameters: dose 15 mg/kg, route oral; details: in vivo
Mus musculus [31] = assay: Tlast in CD-1 mouse at 15 mg/kg, po; format: ADME, organism-based; parameters: dose 15 mg/kg, route oral; details: in vivo
[32] = Elimination half life in CD-1 mouse at 15 mg/kg, po; format: ADME, organism-based; parameters: dose 15 mg/kg, route oral; details: in vivo, read-out: beta t1/2
Mus musculus [33] = assay: AUC (0 to 480 mins) in CD-1 mouse at 15 mg/kg, po; format: ADME, organism-based, Plasma; parameters: time < 8 hr, dose 15 mg/kg, route oral; details: in vivo, 8 h
[34] = AUC infinity in CD-1 mouse at 15 mg/kg, po; format: ADME, organism-based; parameters: time infinity, dose 15 mg/kg, route oral; details: plasma
Mus musculus [35] = assay: Oral bioavailability (last) in CD-1 mouse at 15 mg/kg; format: ADME, organism-based; details: in vivo
CYP1A2 = target: T1, CYP1A2 (Homo sapiens, UniProt P05177); assay: Inhibition of human CYP1A2 using furafylline as substrate at 1 uM; format: ADME; details: probe furafylline
T1 sequence (P05177 whole entry): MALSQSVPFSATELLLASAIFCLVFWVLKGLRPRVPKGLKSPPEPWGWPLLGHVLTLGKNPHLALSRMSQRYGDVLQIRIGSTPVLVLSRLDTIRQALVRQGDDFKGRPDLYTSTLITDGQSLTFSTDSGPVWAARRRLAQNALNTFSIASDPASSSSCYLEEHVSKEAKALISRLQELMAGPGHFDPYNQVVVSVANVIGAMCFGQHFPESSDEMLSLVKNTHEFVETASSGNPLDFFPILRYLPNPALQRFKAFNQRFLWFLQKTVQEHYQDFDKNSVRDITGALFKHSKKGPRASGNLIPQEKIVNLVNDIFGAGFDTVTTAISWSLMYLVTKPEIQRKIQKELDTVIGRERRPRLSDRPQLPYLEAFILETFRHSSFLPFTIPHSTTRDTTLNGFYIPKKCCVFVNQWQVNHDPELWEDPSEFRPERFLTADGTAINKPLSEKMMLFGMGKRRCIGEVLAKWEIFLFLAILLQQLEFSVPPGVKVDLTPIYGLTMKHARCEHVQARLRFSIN

CYP2C19 = CYP2C19 (Homo sapiens, UniProt P33261); assay: Inhibition of human CYP2C19 using tranylcypromine as substrate at 1 uM; format: ADME; details: probe tranylcypromine
CYP2D6 = CYP2D6 (Homo sapiens, UniProt P10635); assay: Inhibition of human CYP2D6 using quinidine as substrate at 1 uM; format: ADME; details: probe quinidine
cells = details: Homo sapiens, OVCAR-8, 96 h
Description: Cytotoxicity against human OVCAR8 cells assessed as growth inhibition after 96 hrs by Giemsa staining-based light microscopy

Sequence of CYP2D6 (P10635 whole entry): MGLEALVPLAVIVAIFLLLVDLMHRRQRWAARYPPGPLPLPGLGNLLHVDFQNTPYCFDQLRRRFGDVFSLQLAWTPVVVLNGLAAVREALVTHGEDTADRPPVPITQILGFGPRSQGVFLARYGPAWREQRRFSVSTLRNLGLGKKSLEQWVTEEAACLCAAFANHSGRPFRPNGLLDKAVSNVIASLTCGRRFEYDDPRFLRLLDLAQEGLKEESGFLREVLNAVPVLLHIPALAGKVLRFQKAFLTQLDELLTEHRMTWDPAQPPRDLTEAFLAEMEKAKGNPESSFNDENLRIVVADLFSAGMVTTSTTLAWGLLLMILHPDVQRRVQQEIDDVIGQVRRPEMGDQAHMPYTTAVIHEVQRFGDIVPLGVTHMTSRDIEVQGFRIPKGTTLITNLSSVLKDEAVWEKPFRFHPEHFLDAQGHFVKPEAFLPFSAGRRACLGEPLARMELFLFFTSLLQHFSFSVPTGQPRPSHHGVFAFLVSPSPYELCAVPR
Sequence of CYP2C19 (P33261 whole entry): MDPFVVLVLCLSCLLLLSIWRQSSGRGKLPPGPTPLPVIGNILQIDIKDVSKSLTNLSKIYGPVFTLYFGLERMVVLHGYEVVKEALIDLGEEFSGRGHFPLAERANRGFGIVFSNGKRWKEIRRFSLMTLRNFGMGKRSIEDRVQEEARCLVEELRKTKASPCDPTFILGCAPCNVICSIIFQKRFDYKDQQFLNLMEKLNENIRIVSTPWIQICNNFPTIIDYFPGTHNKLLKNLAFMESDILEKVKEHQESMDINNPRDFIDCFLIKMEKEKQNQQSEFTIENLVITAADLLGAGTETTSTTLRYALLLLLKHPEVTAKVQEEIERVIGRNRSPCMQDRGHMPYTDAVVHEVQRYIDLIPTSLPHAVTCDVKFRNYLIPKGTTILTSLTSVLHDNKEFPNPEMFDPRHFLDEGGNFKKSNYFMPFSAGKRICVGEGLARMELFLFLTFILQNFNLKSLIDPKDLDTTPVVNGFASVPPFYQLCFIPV

Compound: COc1cc(C(=O)c2ccn(-c3cccc(N)c3)c2)cc(OC)c1OC
- IC50 (Tubulin): 1.4 µM
- IC50 (MCF7): 0.015 µM
- IC50 (HeLa [1]): 0.03 µM
- IC50 (HT-29): 0.06 µM
- IC50 (A549): 0.01 µM
- IC50 [2]: 0.0018 µM
- IC50 [3]: 0.0046 µM
- Activity (HeLa [4]): Active
- Activity (HeLa [5]): Active
- Activity (HeLa [6]): Active
- Activity (HeLa [7]): Active
- Activity (HeLa [8]): inactive
- Activity (HeLa [9]): Dose-dependent effect
- IC50 (HepG2 [10]): 0.275 µM
- Activity [11]: Active
- Activity (RD [12]): Active
- Activity (HepG2 [13]): Active
- Activity [14]: Active
- Activity (RD [15]): Active
- Activity (HepG2 [16]): Active
- Activity (RD [17]): Active
- Activity (RD [18]): Active
- Activity (HepG2 [19]): Active
- IC50 (K562): 0.02 µM
- IC50 [20]: 0.676 µM
- inhibition [20]: Dose-dependent effect
- IC50 [21]: 0.58 µM
- Cmax [22]: 3400 ng/mL
- C0 [23]: 4150 ng/mL
- Tlast (Mus musculus [24]): 480 min
- Clast (Mus musculus [25]): 2.3 ng/mL
- MRT [26]: 31 min
- clearance [27]: 80.8 mL/min/kg
- Vd [28]: 2.7 L/kg
- AUC(0-inf) [29]: 1030 ng·h/mL
- Tmax [30]: 5 min
- Tlast (Mus musculus [31]): 480 min
- half-life [32]: 179 min
- AUC (Mus musculus [33]): 79441 ng·min/mL
- AUC(0-inf) [34]: 1470 ng·h/mL
- F (Mus musculus [35]): 49%
- inhibition at 1 µM (CYP1A2): 66.8%
- inhibition at 1 µM (CYP2C19): 72.6%
- inhibition at 1 µM (CYP2D6): < 5%
- IC50 (cells): 0.007 µM
